In patent US11324216B2, “Methods for controlling root parasitic weeds: inhibitors of seed germination in Striga” (King Abdullah University of Science and Technology, priority 2017, dated 2022):
Where two headings read alike, the source gives them in different places.

Legend:
ShHTL7 [1] = target: T1, ShHTL7 (Striga hermonthica, UniProt A0A0M3PNA2); test: Yoshimulactone Green (YLG) hydrolysis analysis; type: biochemical; details: for IC50: pre-incubation 30 min, 1 μM YLG 60 min
Method: (§1) For measuring the hydrolysis of YLG in vitro, 10 μg of purified ShHTL7, AtD14 and OsD14 in a reaction buffer (1×PBS) containing 0.1% dimethyl sulfoxide (DMSO) in a total volume of 100 μL in 96-well black plate (Greiner) were used. To measure the fluorescent intensity, SpectraMax i3 (Molecular Devices) with an excitation wavelength of 480 nm and a detection wavelength of 520 nm were used. Purified proteins were mixed with Triton X-100, using serial dilutions with concentrations ranging from 5 μM to 4.87 nM. Proteins were pre-incubated with Tritone X-100 for 30 min, followed by incubation with 1 μM YLG (Tokyo Chemical Industry Co. Ltd., product number E1238) for 60 min. Fluorescence values measured in the void control were subtracted from those obtained in the presence of protein. Curves and IC50 values were plotted using Graph pad (PRISM 6) four-parameter logistic curve.

ShHTL7 [2] = target: T1, ShHTL7; details: read-out: Kd of ShHTL7 and GR24
ShHTL7 [3] = target: T1, ShHTL7; details: A. thaliana line expressing ShHTL7; cited from earlier work
ShHTL7 L143Y mutant = test: Yoshimulactone Green (YLG) hydrolysis analysis; type: biochemical, Striga hermonthica
ShHTL7 [4] = target: T1, ShHTL7; test: Intrinsic Triton X-100 fluorescence binding assay
Method: cDNA fragments, encoding the S. hermonthica ShHTL7 or the mutated version S95C (in which the serine in the active triad was changed to cysteine) flanked with BamHI and XhoI restriction sites, were cloned into the pGEX-6P1 (GE Healthcare) expression vector that enables the expression of GST fusion protein, using the corresponding restriction sites, as shown in Table 1 below. The plasmid obtained was then transformed into BL21 (DE3) E. coli cells. Cells were grown in LB medium at 37° C., and protein expression was induced at OD 0.6 at λ=600 nm by adding 150 μM isopropyl β-D-1-thiogalactopyranoside (IPTG). After induction, cultures were grown at 16° C. overnight under shaking. […]
(§2) Purified proteins (at concentrations of 1 nm to 5 μM) were incubated with 1.54 μM of Triton X-100 for 2 h. Since Triton X-100 has an excitation and emission wavelength of 275 nm and 302 nm, fluorescence was measured at the corresponding wavelengths using SpectraMax i3 (Molecular Devices). […] Data were normalized to the background fluorescence from the protein and values obtained in absence of proteins were subtracted, to determine changes in Triton X-100 fluorescence intensity. Kd values were determined by plotting changes in Triton X-100 fluorescence intensity against the concentration of the protein, using the single binding site model implemented in Graph pad (PRISM 6).

ShHTL7 [5] = target: T1, ShHTL7; test: Differential static light scattering (DSLS), aggregation temperature; type: binding; details: following pre-incubation; varying Triton concentrations
Method: The specific aggregation temperature, Tagg, was determined using DSLS on the Stargazer system (Harbinger Biotechnology and Engineering Corporation, Markham, Canada). For this purpose, purified protein (1 mg/mL) was overlaid with mineral oil in a clear bottom 384-well black plate (Corning), and temperature was increased from 20 to 95° C. with a ratio of 1° C./min. A CCD camera was used to detect light scattering every 0.5° C. in the presence or absence of varying concentrations of Triton X-100, unraveling X-100 concentration-dependent changes in aggregation temperature (ShHTL7 ΔTagg). Data were normalized, and ΔTagg was plotted against the Triton X-100 concentration. Resulting data were plotted to determine the change in Tagg of ShHTL7 upon binding to Triton X-100 using Graph pad (PRISM 6).

[6] = test system: rice seeds cv. Nipponbare; type: in vivo; details: Striga germination vs rice growth
Method: The rice seeds cv. Nipponbare were surface-sterilized using 50 ml (2.5%) sodium hypochlorite with 0.4% of Tween-20 for 15 min. After six subsequent washing steps with sterilized water, the rice seeds were kept in water at 30° C. for overnight imbibition. About 2 ml of dilutions of Triton X-100 at 15.4 μM, 1.54 μM in sterile MilliQ water (control) was added in 24-well plates with six replications. One sterilized rice seed was put in each well and allowed to germinate for 48 h at 30° C. The germinated (radicle emergence) and non-germinated seeds were recorded and germination percentage was calculated. Then same seeds were allowed to grow under light in growth cabinet for another one week. The length of one week old seedlings was measured with a roller and averaged.

OsD14 [7] = target: T2, OsD14 (Oryza sativa subsp. japonica, UniProt Q10QA5); test: Intrinsic Triton X-100 fluorescence binding assay; design: species or system rice; details: OsD14 concentrations up to 10 μM
T2 construct: made in house
T2 sequence (Q10QA5 1-318): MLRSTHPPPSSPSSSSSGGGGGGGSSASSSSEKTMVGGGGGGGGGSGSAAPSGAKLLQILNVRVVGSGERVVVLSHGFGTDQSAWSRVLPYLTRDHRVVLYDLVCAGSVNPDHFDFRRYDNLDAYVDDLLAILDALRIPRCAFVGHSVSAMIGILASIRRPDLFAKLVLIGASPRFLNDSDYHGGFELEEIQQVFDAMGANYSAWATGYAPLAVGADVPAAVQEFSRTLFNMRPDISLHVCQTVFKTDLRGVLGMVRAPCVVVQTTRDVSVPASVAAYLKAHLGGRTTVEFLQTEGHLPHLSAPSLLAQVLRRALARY
Method: as §2, with “Since” for “Purified proteins (at concentrations of 1 nm to 5 μM) were incubated with 1.54 μM of Triton X-100 for 2 h. Since”

AtD14 [8] = target: T3, AtD14 (Arabidopsis thaliana, UniProt Q9SQR3); test: Intrinsic Triton X-100 fluorescence binding assay; design: species or system A. thaliana; details: AtD14 concentrations up to 10 μM
T3 construct: made in house
T3 sequence (Q9SQR3 1-267): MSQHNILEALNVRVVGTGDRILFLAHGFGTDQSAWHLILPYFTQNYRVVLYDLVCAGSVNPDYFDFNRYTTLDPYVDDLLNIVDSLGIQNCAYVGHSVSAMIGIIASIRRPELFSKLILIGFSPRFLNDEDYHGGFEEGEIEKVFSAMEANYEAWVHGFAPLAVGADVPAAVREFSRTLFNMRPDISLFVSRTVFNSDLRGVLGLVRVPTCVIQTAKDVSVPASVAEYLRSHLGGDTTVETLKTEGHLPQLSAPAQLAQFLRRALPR
Method: as §2, with “Since” for “Purified proteins (at concentrations of 1 nm to 5 μM) were incubated with 1.54 μM of Triton X-100 for 2 h. Since”

Striga hermonthica seeds = test: Striga hermonthica germination assay (GR24-induced); type: in vivo
Method: Striga hermonthica germination bioassays were carried out using Striga seeds collected from a Sorghum bicolor field in Sudan. About 50-100 dry Striga washed and sterilized seeds were distributed on a 9-mm diameter glass fiber filter paper discs (Sartorius, Goettingen Germany). Discs were then placed in 9-cm diameter petri-dishes (12 discs per petri-dish) on filter paper (Whatman, Maidstone, UK) moistened with 3 mL sterilized water. The petri-dishes were sealed with parafilm, wrapped with aluminum foil and incubated in growth chambers at 30° C. for 10 days for preconditioning. On the 11th day, discs were air dried in laminar flow cabinet and transferred to 9-cm petri-dishes (four discs in each plate), which contained 9-mm diameter glass fiber filter paper rings, moistened with 900 μL sterile MilliQ water. The pre-conditioned Striga seeds were treated with Triton X-100 at concentrations of 15.4 μM (0.001%) and 1.54 μM (0.0001%) along with GR24 at 1 nM, 0.5 nM, 0.25 nM and 0.125 nM respectively. Triton X-100/GR24 mixtures were applied (50 μl per disc) in four replicates. Corresponding volumes of GR24 and sterile MilliQ water were included as positive and negative control, respectively. The petri-dishes were sealed with parafilm, enfolded with aluminum foil and incubated for 48 h at 30° C. The germinated (seeds with radicle emerging through the seed coat) and non-germinated Striga seeds were recorded under a binocular and germination percentage was calculated.

AtD14 [9] = target: T3, AtD14; test: Yoshimulactone Green (YLG) hydrolysis analysis; type: biochemical, A. thaliana
Method: as §1, with “Purified proteins were mixed with Triton X-100, using serial dilutions with concentrations ranging from 5 μM to 4.87 nM.” left out

OsD14 [10] = target: T2, OsD14; test: Yoshimulactone Green (YLG) hydrolysis analysis; type: biochemical, rice
Method: as §1, with “Purified proteins were mixed with Triton X-100, using serial dilutions with concentrations ranging from 5 μM to 4.87 nM.” left out

T1 sequence (A0A0M3PNA2 entry or part of it): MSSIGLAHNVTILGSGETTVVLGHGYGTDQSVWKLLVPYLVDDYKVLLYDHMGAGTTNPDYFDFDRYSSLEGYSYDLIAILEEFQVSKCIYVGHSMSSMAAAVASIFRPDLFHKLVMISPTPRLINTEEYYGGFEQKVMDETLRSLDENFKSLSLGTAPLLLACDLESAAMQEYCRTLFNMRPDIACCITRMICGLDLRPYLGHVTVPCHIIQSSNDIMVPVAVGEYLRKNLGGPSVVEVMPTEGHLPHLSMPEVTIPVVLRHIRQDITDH

Compound: CC(C)(C)CC(C)(C)c1ccc(OCC(=O)O)cc1 [2-[4-(2,4,4-trimethylpentan-2-yl)phenoxy]acetic acid]
- Inhibitory effect on ShHTL7 catalyzed hydrolysis of YLG (ShHTL7 [1]; in words): clear inhibitory effect
- IC50 (ShHTL7 [1]): 1500 ± 410 nM

Compound: CC(C)(C)CC(C)(C)c1ccc(OCCO)cc1 [4-ter-octylphenol Monoethoxylate]
- IC50 (ShHTL7 [1]): 9200 ± 3200 nM

Compound: CC(C)(C)CC(C)(C)c1ccc(OCCOCCO)cc1 [4-ter-octylphenol diethoxylate]
- IC50 (ShHTL7 [1]): 7500 ± 2100 nM

Compound: CC1=C[C@H](O/C=C2/C(=O)O[C@@H]3c4ccccc4C[C@H]23)OC1=O [GR24]
- Kd (ShHTL7 [2]): 440 nM
- GR24 concentration triggering germination (ShHTL7 [3]): picomolar concentrations

Compound: polyethylene glycol tert-octylphenyl ether [Triton X-100]
- Inhibition of YLG hydrolysis by ShHTL7 L143Y mutant (ShHTL7 L143Y mutant): failed to inhibit
- Affinity of Triton for ShHTL7 relative to GR24 (ShHTL7 [4]; Kd 31 nM vs Kd 440 nM): about ten times higher affinity
- Kd (ShHTL7 [4]; following pre-incubation 2 h or more, intrinsic Triton fluorescence, read-out: Kd between Triton and ShHTL7): 31 nM
- Aggregation temperature (Tagg) of ShHTL7 (ShHTL7 [5]): aggregation temperature increases in a Triton concentration-dependent manner
- Triton concentrations inhibiting S. hermonthica germination relative to concentrations that affect rice growth [6]: five orders of magnitude lower
- Change in Triton fluorescence with OsD14 (OsD14 [7]): No change in Triton fluorescence
- Change in Triton fluorescence with AtD14 (AtD14 [8]): No change in Triton fluorescence
- Inhibition of GR24-induced S. hermonthica germination (Striga hermonthica seeds; 1.54 μM Triton X-100): significantly inhibiting
- Inhibition of GR24-induced S. hermonthica germination (Striga hermonthica seeds; 15.4 μM Triton X-100): significantly inhibiting
- Inhibition of S. hermonthica germination (Striga hermonthica seeds; maximum inhibition): up to 90%
- IC50 (ShHTL7 [1]): 470 ± 110 nM
- Inhibition of YLG hydrolysis by AtD14 (AtD14 [9]; 10 μM Triton): around 10%
- Effect on YLG hydrolysis by AtD14 (AtD14 [9]; up to 0.5 μM Triton): did not affect
- Inhibition of YLG hydrolysis by OsD14 (OsD14 [10]; 10 μM Triton): around 10%
- Effect on YLG hydrolysis by OsD14 (OsD14 [10]; up to 0.5 μM Triton): did not affect
